Source: patent US20230144824A1, “1H-PYRAZOLO[4,3-d]PYRIMIDINE COMPOUNDS AS TOLL-LIKE RECEPTOR 7 (TLR7) AGONISTS” (BRISTOL-MYERS SQUIBB COMPANY, priority 2020, published 2023)

Tests used:
human TLR7 = target: T1, human TLR7 (Homo sapiens, UniProt Q9NYK1); experiment: Human TLR7 agonist activity assay (HEK-Blue TLR7 SEAP reporter); assay type: cell-based; conditions: HEK-Blue TLR7 cells, 18 h treatment, average where assay performed multiple times, read-out: hTLR7 Agonism EC50
T1 construct: host or cells: HEK-Blue TLR7 cells (engineered human embryonic kidney cells)
T1 sequence (Q9NYK1 27-1049): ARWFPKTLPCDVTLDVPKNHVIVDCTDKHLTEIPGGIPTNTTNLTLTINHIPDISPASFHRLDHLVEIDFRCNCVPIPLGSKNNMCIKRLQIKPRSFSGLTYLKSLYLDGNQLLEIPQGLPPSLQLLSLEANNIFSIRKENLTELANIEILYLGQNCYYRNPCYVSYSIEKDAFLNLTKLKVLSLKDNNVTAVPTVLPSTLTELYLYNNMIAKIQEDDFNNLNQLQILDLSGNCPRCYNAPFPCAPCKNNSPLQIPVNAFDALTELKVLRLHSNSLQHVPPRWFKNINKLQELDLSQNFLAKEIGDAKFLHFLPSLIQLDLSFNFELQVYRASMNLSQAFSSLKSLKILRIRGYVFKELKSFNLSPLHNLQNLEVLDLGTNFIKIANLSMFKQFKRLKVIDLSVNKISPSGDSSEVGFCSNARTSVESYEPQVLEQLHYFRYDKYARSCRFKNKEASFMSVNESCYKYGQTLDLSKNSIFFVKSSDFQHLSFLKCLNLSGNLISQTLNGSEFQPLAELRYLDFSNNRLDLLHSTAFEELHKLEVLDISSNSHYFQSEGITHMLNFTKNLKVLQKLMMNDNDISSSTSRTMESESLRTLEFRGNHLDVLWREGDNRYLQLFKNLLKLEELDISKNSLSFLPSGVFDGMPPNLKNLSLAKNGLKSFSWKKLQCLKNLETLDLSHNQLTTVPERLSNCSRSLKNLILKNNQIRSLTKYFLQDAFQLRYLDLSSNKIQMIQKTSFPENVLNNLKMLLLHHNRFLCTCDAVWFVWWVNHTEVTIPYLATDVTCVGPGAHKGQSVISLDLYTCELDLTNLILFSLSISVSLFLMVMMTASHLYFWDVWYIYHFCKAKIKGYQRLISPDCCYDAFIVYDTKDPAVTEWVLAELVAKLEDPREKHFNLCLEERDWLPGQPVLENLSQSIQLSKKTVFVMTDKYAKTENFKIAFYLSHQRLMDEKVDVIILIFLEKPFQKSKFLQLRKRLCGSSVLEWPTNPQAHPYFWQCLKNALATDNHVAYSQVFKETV
Experimental: This procedure describes a method for assaying human TLR7 (hTLR7) agonist activity of the compounds disclosed in this specification.
HEK-Blue™ TLR7 cells were added to each well of a 384-well tissue-culture plate (15,000 cells per well) and incubated 16-18 h at 37° C., 5% CO2. Compounds (100 nl) were dispensed into wells containing the HEK-Blue™ TLR cells and the treated cells were incubated at 37° C., 5% CO2. After 18 h treatment ten microliters of freshly-prepared Quanti-Blue™ reagent (Invivogen) was added to each well, incubated for 30 min (37° C., 5% CO2) and SEAP levels measured using an Envision plate reader (OD=620 nm). The half maximal effective concentration values (EC50; compound concentration which induced a response halfway between the assay baseline and maximum) were calculated.

CD69 = experiment: Induction of CD69 in human whole blood; assay type: cell-based; conditions: Homo sapiens, 17 h, 100% set to 1 uM of resiquimod, average where assay performed multiple times, read-out: hWB CD69 EC50
Experimental: The induction of Type I interferon (IFN) MX-1 genes and the B-cell activation marker CD69 are downstream events that occur upon activation of the TLR7 pathway. The following is a human whole blood assay that measures their induction in response to a TLR7 agonist.
Heparinized human whole blood was harvested from human subjects and treated with test TLR7 agonist compounds at 1 mM. The blood was diluted with RPMI 1640 media and Echo was used to predot 10 nL per well giving a final concentration of 1 uM (10 nL in 10 uL of blood). After mixing on a shaker for 30 sec, the plates were covered and placed in a 37° C. chamber for o/n=17 hrs. Fixing/lysis buffer was prepared (5×->1× in H2O, warm at 37° C.; Cat #BD 558049) and kept the perm buffer (on ice) for later use.
For surface markers staining (CD69): prepared surface Abs: 0.045 ul hCD14-FITC (ThermoFisher Cat #MHCD1401)+0.6 ul hCD19-ef450 (ThermoFisher Cat #48-0198-42)+1.5 ul hCD69-PE (cat #BD555531)+0.855 ul FACS buffer. Added 3 ul/well, spin1000 rpm for 1 min and mixed on shaker for 30 sec, put on ice for 30 mins. Stop stimulation after 30 minutes with 70 uL of prewarmed 1× fix/lysis buffer and use Feliex mate to resuspend (15 times, change tips for each plate) and incubate at 37 C for 10 minutes.
Centrifuge at 2000 rpm for 5 minutes aspirate with HCS plate washer, mix on shaker for 30 sec and then wash with 70 uL in dPBS and pelleted 2×s (2000 rpm for 5 min) and 50 ul wash in FACS buffer pelleted 1×s (2000 rpm for 5 min). Mix on shaker for 30 sec. For Intracellular markers staining (MX-1): Add 50 ul of BD Perm buffer III and mix on shaker for 30 sec. Incubate on ice for 30 minutes (in the dark). Wash with 50 uL of FACS buffer 2×(spin @2300 rpm×5 min after perm) followed by mixing on shaker for 30 sec. Resuspended in 20 ul of FACS buffer containing MX1 antibody ( )(4812)-Alexa 647: Novus Biologicals #NBP2-43704AF647) 20 ul FACS bf+0.8 ul hIgG+0.04 ul MX-1. Spin 1000 rpm for 1 min, mix on shaker for 30 se and the samples were incubated at RT in the dark for 45 minutes followed by washing 2×FACS buffer (spin @2300 rpm×5 min after perm). Resuspend 20 ul (35 uL total per well) of FACS buffer and cover with foil and place in 4° C. to read the following day. Plates were read on iQuePlus. The results were loaded into toolset and IC50 curves are generated in curve master. The y-axis 100% is set to 1 uM of resiquimod.

Structure (SMILES)	EC50 (human TLR7)	EC50 (CD69)
CCC[C@@H](CCO)Nc1nc(N)nc2cnn(Cc3ncc(C4CCCCCN4)cc3OC)c12 (mixture of isomers) [Compound 183, (3S)-3-[(5-amino-1-{[5-(azepan-2-yl)-3-methoxypyridin-2-yl]methyl}-1H-pyrazolo[4,3-d]pyrimidin-7-yl)amino]hexan-1-ol]	0.0899 µM	0.0028 µM
CCC[C@@H](CCO)Nc1nc(N)nc2cnn(Cc3ncc(C4C[C@@H](C#N)CN4)cc3OC)c12 (mixture of isomers) [Compound 185, (3R)-5-{6-[(5-amino-7-{[(3S)-1-hydroxyhexan-3-yl]amino}-1H-pyrazolo[4,3-d]pyrimidin-1-yl)methyl]-5-methoxypyridin-3-yl}pyrrolidine-3-carbonitrile]	0.399 µM	0.0278 µM
CCCCNc1nc(N)nc2cnn(Cc3ncc(C4CCNCC4)cc3OC)c12 [Compound 101, N7-butyl-1-{[3-methoxy-5-(piperidin-4-yl)pyridin-2-yl]methyl}-1H-pyrazolo[4,3-d]pyrimidine-5,7-diamine]	0.0566 µM	0.0093 µM
CCCCNc1nc(N)nc2cnn(Cc3ncc(C4CCN(C5COC5)CC4)cc3OC)c12 [Compound 102, N7-butyl-1-({3-methoxy-5-[1-(oxetan-3-yl)piperidin-4-yl]pyridin-2-yl}methyl)-1H-pyrazolo[4,3-d]pyrimidine-5,7-diamine]	0.12 µM	0.0878 µM
CCCCNc1nc(N)nc2cnn(Cc3ncc(C4CCN(S(C)(=O)=O)CC4)cc3OC)c12 [Compound 103, N7-butyl-1-{[5-(1-methanesulfonylpiperidin-4-yl)-3-methoxypyridin-2-yl]methyl}-1H-pyrazolo[4,3-d]pyrimidine-5,7-diamine]	0.204 µM	0.562 µM
CCCCNc1nc(N)nc2cnn(Cc3ncc(C4CCN(C(=O)CCOC)CC4)cc3OC)c12 [Compound 104, 1-[4-(6-{[5-amino-7-(butylamino)-1H-pyrazolo[4,3-d]pyrimidin-1-yl]methyl}-5-methoxypyridin-3-yl)piperidin-1-yl]-3-methoxypropan-1-one]	0.445 µM	0.213 µM
CCCCNc1nc(N)nc2cnn(Cc3ncc(C4CCN(C(=O)CCO)CC4)cc3OC)c12 [Compound 105, 1-[4-(6-{[5-amino-7-(butylamino)-1H-pyrazolo[4,3-d]pyrimidin-1-yl]methyl}-5-methoxypyridin-3-yl)piperidin-1-yl]-3-hydroxypropan-1-one]	0.817 µM	0.159 µM
CCCCNc1nc(N)nc2c(C)nn(Cc3ncc(C4CCNCC4)cc3OC)c12 [Compound 106, N7-butyl-1-{[3-methoxy-5-(piperidin-4-yl)pyridin-2-yl]methyl}-3-methyl-1H-pyrazolo[4,3-d]pyrimidine-5,7-diamine]	0.549 µM	0.15 µM
CCCCNc1nc(N)nc2c(C3CC3)nn(Cc3ncc(C4CCN(C)CC4)cc3OC)c12 [Compound 107, N7-butyl-3-cyclopropyl-1-{[3-methoxy-5-(1-methylpiperidin-4-yl)pyridin-2-yl]methyl}-1H-pyrazolo[4,3-d]pyrimidine-5,7-diamine]	0.383 µM	0.444 µM
CCCCNc1nc(N)nc2cnn(Cc3ncc(C4CCN(C5CCC5)CC4)cc3OC)c12 [Compound 108, N7-butyl-1-{[5-(1-cyclobutylpiperidin-4-yl)-3-methoxypyridin-2-yl]methyl}-1H-pyrazolo[4,3-d]pyrimidine-5,7-diamine]	0.0519 µM	0.0048 µM
CCCCNc1nc(N)nc2cnn(Cc3ncc(C4CCN(C(=O)CCN(C)C)CC4)cc3OC)c12 [Compound 109, 1-[4-(6-{[5-amino-7-(butylamino)-1H-pyrazolo[4,3-d]pyrimidin-1-yl]methyl}-5-methoxypyridin-3-yl)piperidin-1-yl]-3-(dimethylamino)propan-1-one]	0.215 µM	0.0145 µM
CCCCNc1nc(N)nc2cnn(Cc3ncc(C4CCN(C(=O)CC(C)(C)O)CC4)cc3OC)c12 [Compound 110, 1-[4-(6-{[5-amino-7-(butylamino)-1H-pyrazolo[4,3-d]pyrimidin-1-yl]methyl}-5-methoxypyridin-3-yl)piperidin-1-yl]-3-hydroxy-3-methylbutan-1-one]	0.343 µM	0.382 µM
CCCCNc1nc(N)nc2cnn(Cc3ncc(C4CCN(C)CC4)cc3OC)c12 [Compound 111, N7-butyl-1-{[3-methoxy-5-(1-methylpiperidin-4-yl)pyridin-2-yl]methyl}-1H-pyrazolo[4,3-d]pyrimidine-5,7-diamine]	0.0653 µM	0.0054 µM
CCCCNc1nc(N)nc2cnn(Cc3ncc(C4CCN(C5CCOCC5)CC4)cc3OC)c12 [Compound 112, N7-butyl-1-({3-methoxy-5-[1-(oxan-4-yl)piperidin-4-yl]pyridin-2-yl}methyl)-1H-pyrazolo[4,3-d]pyrimidine-5,7-diamine]	0.034 µM	0.0059 µM
CCCCNc1nc(N)nc2cnn(Cc3ncc(C4CCN(C(C)C)CC4)cc3OC)c12 [Compound 113, N7-butyl-1-({3-methoxy-5-[1-(propan-2-yl)piperidin-4-yl]pyridin-2-yl}methyl)-1H-pyrazolo[4,3-d]pyrimidine-5,7-diamine]	0.0472 µM	0.0094 µM
CCCCNc1nc(N)nc2cnn(Cc3ncc(C4CCN(CCO)CC4)cc3OC)c12 [Compound 114, 2-[4-(6-{[5-amino-7-(butylamino)-1H-pyrazolo[4,3-d]pyrimidin-1-yl]methyl}-5-methoxypyridin-3-yl)piperidin-1-yl]ethan-1-ol]	0.0499 µM	0.0036 µM
CCCCNc1nc(N)nc2cnn(Cc3ncc(C4CCN(C5CNC5)CC4)cc3OC)c12 [Compound 115, 1-({5-[1-(azetidin-3-yl)piperidin-4-yl]-3-methoxypyridin-2-yl}methyl)-N7-butyl-1H-pyrazolo[4,3-d]pyrimidine-5,7-diamine]	0.447 µM	0.0647 µM
